# Compound: NC(=O)c1ccc(N(C(N)=O)c2c(F)cccc2F)nc1-c1ccc(F)cc1F [VX-702]
# Assay: relative viability (nuclei count vs DMSO), 5 days (fraction); higher = more cells survive
# In short: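 Five library-drug doses, separated by factors of √10, were pinned into 1536-well plates holding lung cancer cell lines after an overnight stay at 37 °C. Cells were fixed, permeabilised and Hoechst-stained in one step after 5 days without medium change, then imaged at 4×. Viability compares treated-well with vehicle-well nuclei, counted in MetaXpress, as a median across plates. Passing plates had control CV below 25% and at least one doubling.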
cell line,measurement,setting,value
SW 900,relative viability,0.02 µM,0.885
same,relative viability,0.2 µM,0.82
same,relative viability,0.6325 µM,0.775
same,relative viability,2 µM,1.02

# — the supplement of paper PMC10307832
